The source of these data is PMC3853024, “Aromatase inhibitor treatment with an intravaginal device and its effect on pre-ovulatory ovarian follicles in a bovine model” (Reproductive Biology and Endocrinology : RB&E, 2013).

The structures appear in SMILES notation.

In one test the test system is ovarian function. Set-up: method as in PMID 21696721, PMID 22541551. The conditions noted are these: cited from earlier work.
In the next test the test system is plasma progesterone. Description: Plasma progesterone concentration (radioimmunoassay) after post-treatment ovulation. Format: in vivo, cattle (Hereford-cross beef heifers). To be noted: first 12 days post-ovulation, n=15, P=0.01. As for the experimental part: (§1) Heifers in which a CL was detected were given two luteolytic doses of PGF (12 h apart) and monitored by ultrasonography for ovulation. Five to eight days later, the two largest ovarian follicles were ablated by transvaginal ultrasound-guided follicular aspiration to synchronize follicular wave emergence which was expected to occur 1 to 1.5 days later. Prostaglandin (500 μg cloprostenol, Estrumate, Schering-Plough Animal Health, Pointe-Claire, QC, Canada) was given intramuscularly at 60 and 72 h after follicular ablation to induce regression of the CL and shift from a non-ovulatory to an ovulatory follicular wave. […] Devices were inserted on Day 1 and were kept in place until Day 7 or until ovulation was detected, which ever occurred first. […]
Plasma progesterone concentrations were determined in duplicate using a commercial solid-phase radioimmunoassay kit (Coat-A-Count; Diagnostic Products Corporation, Los Angeles, CA, USA). […] All samples were analyzed in a single assay; the intra-assay coefficients of variation were 9.7% and 5.8 % for low- (mean, 1.7 ng/mL) and high-reference samples (mean, 18.7 ng/mL), respectively. […]

Test [1] relates to pre-ovulatory ovarian follicles. Description: Ovarian ultrasonography in heifers treated with a letrozole-containing intravaginal device. Format: in vivo, cattle (Hereford-cross beef heifers). The conditions noted are these: for Device placement to ovulation: inserted Day 1, n=15, mean±SEM. As for the experimental part: Hereford-cross beef heifers (n=30), 15 to 20 months of age and weighing between 235 and 405 kg (average 336 kg), were chosen from a herd of 51 heifers maintained in outdoor pens at the University of Saskatchewan Goodale Research Farm (52° North and 106° West). Heifers were fed alfalfa/grass hay and concentrate to gain approximately 1.3 Kg per day and had water ad libitum during the experimental period from October to December. Heifers were initially examined by transrectal ultrasonography (MyLab5 VET, Canadian Veterinary Imaging, Georgetown, Ontario Canada) to detect the presence of a CL (i.e., confirm post-pubertal status; [18]. Animal procedures were performed in accordance with the Canadian Council on Animal Care and were approved by University of Saskatchewan Protocol Review Committee.
Heifers in which a CL was detected were given two luteolytic doses of PGF (12 h apart) and monitored by ultrasonography for ovulation. Five to eight days later, the two largest ovarian follicles were ablated by transvaginal ultrasound-guided follicular aspiration to synchronize follicular wave emergence which was expected to occur 1 to 1.5 days later. Prostaglandin (500 μg cloprostenol, Estrumate, Schering-Plough Animal Health, Pointe-Claire, QC, Canada) was given intramuscularly at 60 and 72 h after follicular ablation to induce regression of the CL and shift from a non-ovulatory to an ovulatory follicular wave. At the time of follicular wave emergence (Day 0; i.e., 1.5 days after follicle ablation), heifers were assigned randomly to two groups and given an intravaginal device containing 1 g of letrozole (letrozole group, n=15) or a placebo (letrozole-free) intravaginal device (control group, n=15). Devices were inserted on Day 1 and were kept in place until Day 7 or until ovulation was detected, which ever occurred first.
Intravaginal devices were prepared using a Cue-Mate spine (Bioniche Animal Health, Bellville, ON, Canada) assembled with two blank (progesterone-free) silicone pods that were coated with a gel-based vehicle containing letrozole or vehicle only (control). The vehicle contained the following (all ingredients % w/w): letrozole 10%, gelatin 20% (Gelatin type B, Fisher Scientific, Pittsburgh, PA, USA), polymer 65% (prepared by mixing distilled water 68%, Poloxamer 188 12% and Poloxamer 407 20%, both from Spectrum Chemical, New Brunswick, NJ, USA) and distilled water 5%.
The observations from ultrasound examinations were recorded on a sketch sheet in which each ovary and its structures (CL and follicles ≥ 4 mm in diameter) were represented by size and location. Ovulation was defined as the disappearance of any follicle ≥8 mm between two consecutive daily examinations and was confirmed by the subsequent development of a CL [18]. Follicular wave emergence was defined as occurring 1.5 days after follicular ablation. The dominant follicle of a wave was defined as the largest antral follicle of that wave.
Statistical analyses were done using the Statistical Analysis System software package (SAS Learning Edition 9.1, 2006; SAS Institute Inc., Cary, NC, USA). Time-series data (hormone concentrations, follicle and CL diameter profiles) were analyzed by repeated measures using the PROC MIXED procedure. The main effects were treatment (letrozole and control), time, and their interactions (noted in figures as treatment, day and treat*day, respectively). Single-point measurements (dominant follicle diameter at device placement, maximum diameter of extant dominant follicle, intervals from ablation to wave emergence, and from device placement to ovulation) were analyzed by t-tests. Individual time point comparisons between treatment groups were performed using least significant difference test. Significance was defined as P ≤ 0.05.

A further test relates to plasma FSH. Description: Plasma FSH concentration (radioimmunoassay) in treated heifers. Format: in vivo, cattle (Hereford-cross beef heifers). The conditions noted are these: n=15, P=0.1. As for the experimental part: as §1
Plasma FSH concentrations were determined in duplicate using a double-antibody radioimmunoassay using NIDDK-anti-oFSH-1 primary antibody and expressed as USDA bovine FSH-Il units. […] All samples were analyzed in a single assay; the intra-assay coefficients of variation were 7.9 and 6.5%, for low (mean, 2.4 ng/mL) and high reference samples (mean 4.9 ng/mL), respectively. […]

Where [2] appears, read: single intravenous dose Day 3 post-ovulation, or 3-day regimen Days 1–3, 3–5 or 5–7 post-ovulation.

For the compound `N#Cc1ccc(C(c2ccc(C#N)cc2)n2cncn2)cc1` [Letrozole], the “Corpora lutea size following treatment” value with ovarian function (heifers treated with letrozole for 3 days) is recorded as “larger corpora lutea”. Moreover, the “Circulating FSH concentration” value in the test on ovarian function (setting [2]) is “did not induce an elevation”. Besides, in the test with ovarian function (setting [2]), the “Mean plasma luteinizing hormone (LH) concentrations” value is recorded as “did increase”. In addition, in the test on plasma progesterone, the “Plasma progesterone concentrations versus control” value is recorded as “higher”. In addition, the “Dominant follicle diameter at device placement” value in test [1] (Day 1, at device insertion (baseline), n=15, mean±SEM) is 4.2±0.46 mm. In addition, the “Corpus luteum diameter profile versus control” value in test [1] (after post-treatment ovulation, n=15, P=0.82) is on record as “not different”. Also, the Number of ovulations entry in test [1] (all heifers, regardless of treatment) is on record as “Single ovulation”. In test [1] (during treatment, n=15, P=0.05), the “Day-to-day diameter profile of the dominant follicle versus control” value is recorded as “larger”. The “Device placement to ovulation” value came to 6.1 ± 0.25 days in test [1] (intravaginal device containing 1 g letrozole) and 6.1 ± 0.25 days in test [1] (intravaginal device containing 1 g letrozole, listed as letrozole). The “Delay of ovulation versus control” value in test [1] (intravaginal device containing 1 g letrozole, n=15) worked out at 24 h. Besides, the “Max. diameter of extant dominant follicle” value is 14.6±0.51 mm in test [1] (intravaginal device containing 1 g letrozole, n=15, mean±SEM) and 14.6+/-0.51 mm in test [1] (intravaginal device containing 1 g letrozole, n=15, mean±SEM, listed as letrozole). In the test on plasma FSH, the “Plasma FSH concentrations versus control” value was “tendency for lower”.
